Measured values reported in US11413269B2, “Compositions for improved NRF2 activation and methods of their use” (PATHWAYS BIOSCIENCE, LLC, priority 2015, dated 2022).

System: Nrf2
Test: ARE-driven luciferase promoter/reporter assay in stably transfected cell lines
Format: cell-based, human
Settings: low concentrations
Experimental: Briefly, the stably transfected cells of types HepG2 (human liver), AREc32 (human breast), MCF7 (human breast), A549 (human lung), 293T (human kidney), and A172 (human brain) were seeded at low density in 24-well plates and incubated at 37° C. with 10% CO2. […] After an additional 18 h of incubation, the cells were lysed in their wells with 100 μl of a lysing buffer that contains 3.5 mM sodium pyrophosphate to stabilize light output by luciferase. A 20 μl aliquot of cell lysate was added to a small test tube, placed in a BD Monolight 3010 luminometer for background luminescence, and then 50 μl of 1 mM luciferin was injected into the tube. Relative Light Units integrated for 10 sec were measured for each sample.

O=c1cc(-c2ccc(O)c(O)c2)oc2cc(O)cc(O)c12 [Luteolin, luteolin]
synergy with combinations of Rosemary extracts and Ginger extracts to activate Nrf2: synergized
